Here are results for 3 molecules from BindingDB's records for doi:10.1021/jm070654j (University of Zurich, 2008).

pIC50: −log10 of the molar value. Some results are limits rather than exact numbers.

As a reminder, the pIC50 is the negative decadic logarithm of the IC50, by convention in mol/L. A higher pIC50 goes with a small IC50.

This experiment deals with Cyclin-dependent kinase 1 (Homo sapiens, UniProt P06493). Kind of experiment: Inhibition of CDK1.
Chain of Cyclin-dependent kinase 1 (P06493 whole entry): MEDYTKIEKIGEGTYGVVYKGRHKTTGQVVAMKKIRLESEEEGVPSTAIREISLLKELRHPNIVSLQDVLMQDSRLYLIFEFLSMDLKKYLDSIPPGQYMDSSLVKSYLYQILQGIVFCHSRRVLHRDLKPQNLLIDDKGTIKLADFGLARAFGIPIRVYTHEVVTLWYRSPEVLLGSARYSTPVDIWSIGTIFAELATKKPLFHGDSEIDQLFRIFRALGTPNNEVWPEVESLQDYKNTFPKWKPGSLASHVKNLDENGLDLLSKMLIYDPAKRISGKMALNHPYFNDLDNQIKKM
As to `Cc1cccc2c1NC(=O)C2C=Nc1ccc(S(N)(=O)=O)cc1` (stereo not drawn), the negative logarithm of the IC50 (pIC50) was < 6.00. Turning to `Cc1cc(C)c2c(c1)C(C=Nc1ccc(S(N)(=O)=O)cc1)C(=O)N2` (stereo not drawn), the pIC50 was < 6.00.

In the case of `Cc1cc(Cl)cc2c1NC(=O)C2C=Nc1ccc(S(N)(=O)=O)cc1` (stereo not drawn), the pIC50 is < 6.00.
